Measurements published in patent publication US20250346574A1, “PYRIDINYL SUBSTITUTED OXOISOINDOLINE COMPOUNDS FOR THE TREATMENT OF CANCER” (Bristol-Myers Squibb Company, priority 2021, published 2025).

What follows are molecules tested against T1, Helios (Homo sapiens, UniProt Q96SW2+Q9UKS7) (assay: Helios Cellular Degradation Assay (Jurkat cells)). Details: incubated 72 h, Helios-PE antibody staining, flow cytometry, read-out: Helios Jurkat IC50.
T1 sequence (Q9UKS7 whole entry): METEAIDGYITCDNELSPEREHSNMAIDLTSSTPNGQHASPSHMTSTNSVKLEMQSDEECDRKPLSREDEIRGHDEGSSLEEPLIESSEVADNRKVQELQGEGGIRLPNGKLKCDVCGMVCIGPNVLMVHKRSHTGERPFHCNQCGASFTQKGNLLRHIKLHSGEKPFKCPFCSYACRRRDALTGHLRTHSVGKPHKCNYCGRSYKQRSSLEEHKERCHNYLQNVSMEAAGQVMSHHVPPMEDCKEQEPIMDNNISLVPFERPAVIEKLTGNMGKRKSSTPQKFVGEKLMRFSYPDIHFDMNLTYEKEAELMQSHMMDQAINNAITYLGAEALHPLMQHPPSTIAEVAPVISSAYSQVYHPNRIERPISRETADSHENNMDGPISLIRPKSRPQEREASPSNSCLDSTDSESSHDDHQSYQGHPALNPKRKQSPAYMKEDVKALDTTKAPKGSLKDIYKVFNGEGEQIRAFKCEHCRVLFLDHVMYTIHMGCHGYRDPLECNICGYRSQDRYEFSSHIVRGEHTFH
T1 sequence (Q96SW2 whole entry): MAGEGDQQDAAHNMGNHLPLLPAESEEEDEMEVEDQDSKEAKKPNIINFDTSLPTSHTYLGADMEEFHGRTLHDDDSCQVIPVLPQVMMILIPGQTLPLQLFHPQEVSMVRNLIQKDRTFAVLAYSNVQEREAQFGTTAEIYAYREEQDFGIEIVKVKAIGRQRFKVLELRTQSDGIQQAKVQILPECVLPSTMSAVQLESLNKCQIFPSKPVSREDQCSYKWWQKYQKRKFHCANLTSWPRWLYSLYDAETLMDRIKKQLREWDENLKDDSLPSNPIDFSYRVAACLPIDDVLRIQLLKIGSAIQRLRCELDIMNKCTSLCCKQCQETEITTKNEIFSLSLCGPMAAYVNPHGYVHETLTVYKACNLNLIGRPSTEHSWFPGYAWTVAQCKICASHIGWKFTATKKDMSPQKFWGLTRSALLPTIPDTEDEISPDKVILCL
T1 sequence (Q16531 whole entry partner): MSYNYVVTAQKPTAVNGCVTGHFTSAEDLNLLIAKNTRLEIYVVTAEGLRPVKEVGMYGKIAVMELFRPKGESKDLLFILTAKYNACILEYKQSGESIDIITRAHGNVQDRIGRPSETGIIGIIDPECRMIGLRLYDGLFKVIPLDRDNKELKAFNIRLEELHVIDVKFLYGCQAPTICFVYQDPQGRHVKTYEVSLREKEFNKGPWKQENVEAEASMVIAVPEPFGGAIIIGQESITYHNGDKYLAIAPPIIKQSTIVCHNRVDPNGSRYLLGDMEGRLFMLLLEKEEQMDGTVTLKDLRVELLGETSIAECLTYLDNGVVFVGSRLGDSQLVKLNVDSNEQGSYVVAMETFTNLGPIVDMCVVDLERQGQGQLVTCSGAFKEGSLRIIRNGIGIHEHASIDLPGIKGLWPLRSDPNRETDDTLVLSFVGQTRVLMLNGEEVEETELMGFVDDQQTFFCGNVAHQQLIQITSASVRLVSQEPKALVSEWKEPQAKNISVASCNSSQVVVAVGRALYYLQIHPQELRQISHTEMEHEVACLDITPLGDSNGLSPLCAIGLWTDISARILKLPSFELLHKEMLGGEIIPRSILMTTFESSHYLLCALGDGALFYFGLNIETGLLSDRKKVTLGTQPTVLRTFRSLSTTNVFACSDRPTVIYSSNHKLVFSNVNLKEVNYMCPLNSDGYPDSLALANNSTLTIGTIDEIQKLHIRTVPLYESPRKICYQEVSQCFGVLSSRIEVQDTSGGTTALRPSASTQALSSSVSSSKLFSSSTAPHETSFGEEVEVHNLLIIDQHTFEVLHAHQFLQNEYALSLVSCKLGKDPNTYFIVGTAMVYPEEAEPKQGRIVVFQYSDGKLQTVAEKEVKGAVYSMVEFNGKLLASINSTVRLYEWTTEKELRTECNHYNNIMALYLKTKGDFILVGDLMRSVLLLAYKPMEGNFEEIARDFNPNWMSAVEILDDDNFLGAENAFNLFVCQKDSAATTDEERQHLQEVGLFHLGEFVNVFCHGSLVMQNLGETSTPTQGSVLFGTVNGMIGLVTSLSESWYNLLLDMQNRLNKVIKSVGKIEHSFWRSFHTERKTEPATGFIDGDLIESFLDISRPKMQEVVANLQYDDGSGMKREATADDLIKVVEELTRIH
Type: cell-based
Set-up: fluorescently labelled antibodies against Helios, Ikaros and Aiolos; endogenous in cells; host or cells: Jurkat cells
Method: Jurkat cells were plated at 80,000 cells/well in 40 μL RPMI+10% FBS in a 384 well cell culture plate prior to using acoustic dispensing technology for adding compound of interest. Cell cultures were incubated for 72 h at 37° C. and 5% CO2. In order to facilitate analysis, cell cultures were spun down at 200 rpm for 5 min and the supernatant was discarded. After shaking the plate to dislodge the cell pellet, cells were resuspended in 50 μL of Fixation Buffer (eBioScience FoxP3 buffer set 00-5523-00) for 60 min at room temperature. After centrifuging and discarding the supernatant, cells were permeabilized with 50 μL of Permeabilization buffer (eBioScience FoxP3 buffer set 00-5523-00) for 10 min at room temperature. Following permeabilization, cells were spun down and the supernatant was replaced with 20 μL fluorescently labelled antibodies against Helios, Ikaros and Aiolos or corresponding Isotype controls in 1× Permeabilization buffer (Ikaros-Alexa488 [Biolegend, Cat #368408, 1:50], Helios-PE [CST, Cat #29360, 1:50], Aiolos-Alexa647 [Biolegend, Cat #371106Biolegend, 1:25]) and staining reactions were incubated for 1 h at room temperature; protected from light. […] Stained cells were resuspended in 25 μL of flow cytometry staining buffer (PBS+0.2% BSA) and analyzed using an Intellicyt Ique Plus flow cytometer.
NC(=O)C1CCN1Cc1ccnc(-c2ccc3c(c2)CN(C2CCC(=O)NC2=O)C3=O)c1 (centres unmarked) [Example 79, 1-((2-(2-(2,6-dioxopiperidin-3-yl)-1-oxoisoindolin-5-yl)pyridin-4-yl)methyl) azetidine-2-carboxamide] gave a DC50 of 736 nM.

Each molecule was assayed against T1, Helios (assay: Helios Human T Regulatory Cells Degradation Assay). Details: cryopreserved human T regulatory cells, incubated 20 hours, Helios-APC antibody staining, flow cytometry; read-out: hTreg Helios DC50.
Type: cell-based
Set-up: fluorescently labelled antibodies against Helios in 1× Permeabilization buffer; endogenous in cells; host or cells: cryopreserved human T regulatory cells
Summary of the method: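 Cryopreserved human Treg cells thawed in RPMI+10% FBS+20 ng/mL IL-2, rested 3 h, then incubated with compound 20 hours at 37° C, 5% CO2. Near-IR viability stain, permeabilization, flow cytometry read-out.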
For CC1(O)CC2CN(Cc3ccnc(-c4ccc5c(c4)CN(C4CCC(=O)NC4=O)C5=O)c3F)CC2C1 (centres unmarked) [Example 255, 3-(5-(3-fluoro-4-((5-hydroxy-5-methylhexahydrocyclopenta[c]pyrrol-2(1H)-yl)methyl)pyridin-2-yl)-1-oxoisoindolin-2-yl)piperidine-2,6-dione], the DC50 was 492 nM.
CC(C)(O)C1CCN(Cc2cc(-c3ccc4c(c3)CN(C3CCC(=O)NC3=O)C4=O)ncc2F)CC1 (centres unmarked) [Example 92, 3-(5-(5-fluoro-4-((4-(2-hydroxypropan-2-yl)piperidin-1-yl)methyl)pyridin-2-yl)-1-oxoisoindolin-2-yl)piperidine-2,6-dione] was tested, and the DC50 was 1.2 nM.
O=C1CCC(N2Cc3cc(-c4nccc(CN5CCC(O)(c6ccccc6Cl)C5)c4F)ccc3C2=O)C(=O)N1 (centres unmarked) [Example 238, 3-(5-(4-((3-(2-chlorophenyl)-3-hydroxypyrrolidin-1-yl)methyl)-3-fluoropyridin-2-yl)-1-oxoisoindolin-2-yl)piperidine-2,6-dione] was tested, and the DC50 was 172 nM.
Molecule Cc1cnc(-c2ccc3c(c2)CN(C2CCC(=O)NC2=O)C3=O)cc1CN1CCC(C2CC2)C1 (centres unmarked) [Example 169, 3-(5-(4-((3-cyclopropylpyrrolidin-1-yl)methyl)-5-methylpyridin-2-yl)-1-oxoisoindolin-2-yl)piperidine-2,6-dione] has a DC50 of 4 nM.
C[C@H]1[C@H](O)CN1Cc1ccnc(-c2ccc3c(c2)CN(C2CCC(=O)NC2=O)C3=O)c1F (stereo partly drawn) [Example 90, 3-(5-(3-fluoro-4-(((2S,3R)-3-hydroxy-2-methylazetidin-1-yl)methyl)pyridin-2-yl)-1-oxoisoindolin-2-yl)piperidine-2,6-dione] gave a DC50 of 454 nM.
In the case of O=C1CCC(N2Cc3cc(-c4cc(CN5CC6(CCCCC6)C5)ccn4)ccc3C2=O)C(=O)N1 (centres unmarked) [Example 157, 3-(5-(4-((2-azaspiro[3.5]nonan-2-yl)methyl)pyridin-2-yl)-1-oxoisoindolin-2-yl) piperidine-2,6-dione], the DC50 was 2.5 nM.
With O=C1CCC(N2Cc3cc(-c4nccc(CN5CCC(O)(c6ccccc6)CC5)c4F)ccc3C2=O)C(=O)N1 (centres unmarked) [Example 91, 3-(5-(3-fluoro-4-((4-hydroxy-4-phenylpiperidin-1-yl)methyl)pyridin-2-yl)-1-oxoisoindolin-2-yl)piperidine-2,6-dione] the DC50 was ≥ 10000 nM.
COc1c(CN2CCC(C3CC3)C2)ccnc1-c1ccc2c(c1)CN(C1CCC(=O)NC1=O)C2=O (centres unmarked) [Example 173, 3-(5-(4-((3-cyclopropylpyrrolidin-1-yl)methyl)-3-methoxypyridin-2-yl)-1-oxoisoindolin-2-yl)piperidine-2,6-dione] showed a DC50 of 0.4 nM.
CN(C1CN(Cc2ccnc(-c3ccc4c(c3)CN([C@H]3CCC(=O)NC3=O)C4=O)c2)C1)S(=O)(=O)c1ccccc1 [Example 162, (S)—N-(1-((2-(2-(2,6-dioxopiperidin-3-yl)-1-oxoisoindolin-5-yl)pyridin-4-yl)methyl)azetidin-3-yl)-N-methylbenzenesulfonamide] was tested, and the DC50 was 28.7 nM.
In the case of CN(CC1CN(Cc2ccnc(-c3ccc4c(c3)CN([C@H]3CCC(=O)NC3=O)C4=O)c2)C1)C(=O)c1ccccc1 [Example 164, (S)—N-((1-((2-(2-(2,6-dioxopiperidin-3-yl)-1-oxoisoindolin-5-yl)pyridin-4-yl)methyl)azetidin-3-yl)methyl)-N-methylbenzamide], the DC50 was 15.9 nM.
Work on CC1(O)CN(Cc2ccnc(-c3ccc4c(c3)CN(C3CCC(=O)NC3=O)C4=O)c2F)C1 (centres unmarked) [Example 224, 3-(5-(3-fluoro-4-((3-hydroxy-3-methylazetidin-1-yl)methyl)pyridin-2-yl)-1-oxoisoindolin-2-yl)piperidine-2,6-dione] yielded a DC50 of 72.9 nM.
For O=C1CCC(N2Cc3cc(-c4nccc(CN5CC6CC(C5)C6O)c4F)ccc3C2=O)C(=O)N1 (centres unmarked) [Example 219, 3-(5-(3-fluoro-4-((6-hydroxy-3-azabicyclo[3.1.1]heptan-3-yl)methyl)pyridin-2-yl)-1-oxoisoindolin-2-yl)piperidine-2,6-dione], the DC50 was 9.8 nM.
For CC(C)OCC1CCN1Cc1ccnc(-c2ccc3c(c2)CN(C2CCC(=O)NC2=O)C3=O)c1 (centres unmarked) [Example 196, 3-(5-(4-((2-(isopropoxymethyl)azetidin-1-yl)methyl)pyridin-2-yl)-1-oxoisoindolin-2-yl)piperidine-2,6-dione], the DC50 was 2.6 nM.
For O=C1CC[C@H](N2Cc3cc(-c4nccc(CN5C[C@H]6CCC(O)C[C@H]6C5)c4F)ccc3C2=O)C(=O)N1 (stereo partly drawn) [Example 149, (3S)-3-(5-(3-fluoro-4-(((3aR,7aS)-5-hydroxyoctahydro-2H-isoindol-2-yl)methyl)pyridin-2-yl)-1-oxoisoindolin-2-yl)piperidine-2,6-dione], the DC50 was 6.7 nM.
With O=C1CC[C@H](N2Cc3cc(-c4nccc(CN5C[C@H]6COC[C@H]6C5)c4F)ccc3C2=O)C(=O)N1 [Example 151, (S)-3-(5-(3-fluoro-4-(((3aR,6aS)-tetrahydro-1H-furo[3,4-c]pyrrol-5(3H)-yl)methyl)pyridin-2-yl)-1-oxoisoindolin-2-yl)piperidine-2,6-dione] the DC50 was 167 nM.
In the case of O=C1CCC(N2Cc3cc(-c4nccc(CN5CCC(O)CC5)c4F)ccc3C2=O)C(=O)N1 (centres unmarked) [Example 226, 3-(5-(3-fluoro-4-((4-hydroxypiperidin-1-yl)methyl)pyridin-2-yl)-1-oxoisoindolin-2-yl)piperidine-2,6-dione], the DC50 was 51.5 nM.
CC(=O)N1CCC2(CN(Cc3ccnc(-c4ccc5c(c4)CN(C4CCC(=O)NC4=O)C5=O)c3F)C2)C1 (centres unmarked) [Example 272, 3-(5-(4-((6-acetyl-2,6-diazaspiro[3.4]octan-2-yl)methyl)-3-fluoropyridin-2-yl)-1-oxoisoindolin-2-yl)piperidine-2,6-dione] gave a DC50 of 280 nM.
In the case of CC1(O)CC2CN(Cc3ccnc(-c4ccc5c(c4)CN(C4CCC(=O)NC4=O)C5=O)c3)CC2C1 (stereo in doubt) [Example 147, (3S)-3-(5-(4-((5-hydroxy-5-methylhexahydrocyclopenta[c]pyrrol-2(1H)-yl)methyl)pyridin-2-yl)-1-oxoisoindolin-2-yl)piperidine-2,6-dione], the DC50 was 11.5 nM.
Work on COCC1N(Cc2ccnc(-c3ccc4c(c3)CN(C3CCC(=O)NC3=O)C4=O)c2)CC12CCC2 (centres unmarked) [Example 189, 3-(5-(4-((1-(methoxymethyl)-2-azaspiro[3.3]heptan-2-yl)methyl)pyridin-2-yl)-1-oxoisoindolin-2-yl)piperidine-2,6-dione] yielded a DC50 of 6.4 nM.
O=C1CCC(N2Cc3cc(-c4nccc(CN5CCC(F)CC5)c4F)ccc3C2=O)C(=O)N1 (centres unmarked) [Example 260, 3-(5-(3-fluoro-4-((4-fluoropiperidin-1-yl)methyl)pyridin-2-yl)-1-oxoisoindolin-2-yl)piperidine-2,6-dione] gave a DC50 of 140 nM.
With O=C1CCC(N2Cc3cc(-c4nccc(CN5CCC(O)(C(F)(F)F)C5)c4F)ccc3C2=O)C(=O)N1 (centres unmarked) [Example 185, 3-(5-(3-fluoro-4-((3-hydroxy-3-(trifluoromethyl)pyrrolidin-1-yl)methyl)pyridin-2-yl)-1-oxoisoindolin-2-yl)piperidine-2,6-dione] the DC50 was ≥ 10000 nM.
With C[C@@H]1c2c(ccc(-c3cc(CN4CCC(O)(c5ccccc5)C4)ccn3)c2F)C(=O)N1[C@H]1CCC(=O)NC1=O (stereo partly drawn) [Example 139, (3S)-3-((3R)-4-fluoro-5-(4-((3-hydroxy-3-phenylpyrrolidin-1-yl)methyl)pyridin-2-yl)-3-methyl-1-oxoisoindolin-2-yl)piperidine-2,6-dione] the DC50 was 367 nM.
